What is called IC50 is the concentration that inhibits the measured activity by half. Higher therefore signals weaker potency in that assay.

The text below walks through data of ChEMBL document CHEMBL1144827, “PTP1B inhibitors: synthesis and evaluation of difluoro-methylenephosphonate bioisosteres on a sulfonamide scaffold” (Bioorg Med Chem Lett, 2008).

For this test, the target named is T1, Tyrosine-protein phosphatase non-receptor type 1 (Homo sapiens, UniProt P18031).
T1 sequence (P18031 whole entry): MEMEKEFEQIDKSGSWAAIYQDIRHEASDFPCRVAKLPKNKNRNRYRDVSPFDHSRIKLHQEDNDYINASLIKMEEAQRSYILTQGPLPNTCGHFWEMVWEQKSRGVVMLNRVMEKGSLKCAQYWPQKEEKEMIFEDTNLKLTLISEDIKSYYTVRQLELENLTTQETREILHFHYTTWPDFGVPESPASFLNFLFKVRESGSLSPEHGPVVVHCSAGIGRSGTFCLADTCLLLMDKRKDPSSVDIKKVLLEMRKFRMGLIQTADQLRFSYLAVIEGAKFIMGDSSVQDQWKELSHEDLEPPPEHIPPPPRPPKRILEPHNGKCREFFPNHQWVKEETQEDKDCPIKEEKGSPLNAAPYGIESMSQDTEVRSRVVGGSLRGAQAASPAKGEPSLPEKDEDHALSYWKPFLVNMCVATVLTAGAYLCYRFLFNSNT
Put plainly: Inhibition of PTP1B.
`O=C(O)COc1ccc(CN(Cc2ccc(-c3csnn3)cc2)S(=O)(=O)c2ccccc2)cc1Cl` came in with an IC50 of 53.8 µM.

`O=C(O)COc1ccc(S(=O)(=O)N(Cc2ccc(-c3csnn3)cc2)Cc2ccc(OC(F)(F)C(=O)O)c(Br)c2)cc1` displayed an IC50 of 77.9 µM. The IC50 values of the last two molecules are within 1.5-fold of each other.

`O=C(O)COc1ccc(CN(Cc2ccc(-c3csnn3)cc2)S(=O)(=O)c2ccc(OCC(=O)O)cc2)cc1` came in with a concentration for half-maximal inhibition (IC50) of 59.6 µM.

On to `O=C(O)C(F)(F)c1ccc(CN(Cc2ccc(-c3csnn3)cc2)S(=O)(=O)c2ccccc2)cc1`, for which it took 51.8 µM to reach half-maximal inhibition (IC50).

The molecule `O=C(O)COc1ccc(S(=O)(=O)N(Cc2ccc(-c3csnn3)cc2)Cc2ccc(OCC(=O)O)c(Cl)c2)cc1` displayed an IC50 of 57.7 µM. The IC50 values of the last two molecules are within 1.5-fold of each other.

Molecule `O=C(O)COc1c(F)cc(CN(Cc2ccc(-c3csnn3)cc2)S(=O)(=O)c2ccccc2)cc1F` came in with an IC50 of 137 µM.

As for `O=C(O)COc1ccc(S(=O)(=O)N(Cc2ccc(-c3csnn3)cc2)Cc2ccc(C(F)(F)C(=O)O)cc2)cc1`, the IC50 is 17.7 µM.

As for `Cc1cc(CN(Cc2ccc(-c3csnn3)cc2)S(=O)(=O)c2ccccc2)ccc1OCC(=O)O`, the IC50 is 80.7 µM.

With `O=C(O)COc1ccc(S(=O)(=O)N(Cc2ccc(-c3csnn3)cc2)Cc2ccc(OCC(=O)O)c(C(=O)O)c2)cc1`, the IC50 worked out at 4.4 µM.

`O=C(O)C(=O)Nc1ccc(CN(Cc2ccc(-c3csnn3)cc2)S(=O)(=O)c2ccccc2)cc1C(=O)O`: the IC50 came to 10.1 µM. Against the preceding molecule, the IC50 is about 2.3-fold higher.

`Cc1cc(CN(Cc2ccc(-c3csnn3)cc2)S(=O)(=O)c2ccccc2)cc(C)c1OC(Cc1ccccc1)C(=O)O` (centres undefined) displayed an IC50 of 38 µM.

Take `Cc1cc(CN(Cc2ccc(-c3csnn3)cc2)S(=O)(=O)c2ccc(OCC(=O)O)cc2)ccc1OCC(=O)O`: half-maximal inhibition (IC50) was put at 76.2 µM.

Regarding `COc1cc(CN(Cc2ccc(-c3csnn3)cc2)S(=O)(=O)c2ccc(OCC(=O)O)cc2)ccc1OC(F)(F)C(=O)O`, the IC50 is more than 250 µM.

With `CC(C(=O)O)(C(=O)O)c1ccc(CN(Cc2ccc(-c3csnn3)cc2)S(=O)(=O)c2ccc(OCC(=O)O)cc2)cc1`, the IC50 stood at 74.2 µM. In other words, the double-digit micromolar range.

In turn, `CC(C(=O)O)c1ccc(CN(Cc2ccc(-c3csnn3)cc2)S(=O)(=O)c2ccc(OCC(=O)O)cc2)cc1` (centres undefined) gave an IC50 of 153 µM.

As to `O=C(O)COc1ccc(S(=O)(=O)N(Cc2ccc(OC(F)(F)C(=O)O)cc2)Cc2ccc(-c3csnn3)cc2)cc1`, the IC50 was determined as 29.1 µM.

For the molecule `O=C(O)C(F)(F)Oc1cccc(CN(Cc2ccc(-c3csnn3)cc2)S(=O)(=O)c2ccccc2)c1`, half-maximal inhibition (IC50) was put at 198 µM. Compared with the last molecule, the IC50 is about 6.8-fold higher.

For the molecule `O=C(O)COc1ccc(S(=O)(=O)N(Cc2ccc(-c3csnn3)cc2)Cc2cccc(OC(F)(F)C(=O)O)c2)cc1`, the midpoint of inhibition, the IC50, lay at 230 µM. This IC50 and that of the molecule before are within 1.5-fold of each other.

In turn, `O=C(O)CSc1ccc(CN(Cc2ccc(-c3csnn3)cc2)S(=O)(=O)c2ccccc2)cc1` yielded an IC50 of 115 µM. Compared with the last molecule, the IC50 is about 2-fold lower.

The molecule `O=C(O)C(F)(F)Oc1ccc(CN(Cc2ccc(-c3csnn3)cc2)S(=O)(=O)c2ccccc2)cc1` yielded an IC50 of 97.1 µM.

Consider `O=C(O)CS(=O)(=O)c1ccc(CN(Cc2ccc(-c3csnn3)cc2)S(=O)(=O)c2ccccc2)cc1`, for which the IC50 was determined as 232 µM.

In the case of `O=C(O)COc1ccc(S(=O)(=O)N(Cc2ccc(-c3csnn3)cc2)Cc2cc(F)c(OCC(=O)O)c(F)c2)cc1`, the concentration for half-maximal inhibition (IC50) is 19.9 µM.

With `O=C(O)COc1ccc(S(=O)(=O)N(Cc2ccc(-c3csnn3)cc2)Cc2ccc(N(C(=O)C(=O)O)c3ccccc3)cc2)cc1`, the half-inhibitory concentration (IC50) was more than 250 µM.

As for `COc1cc(CN(Cc2ccc(-c3csnn3)cc2)S(=O)(=O)c2ccccc2)ccc1OC(F)(F)C(=O)O`, the IC50 amounted to 237 µM.

In turn, `Cc1cc(CN(Cc2ccc(-c3csnn3)cc2)S(=O)(=O)c2ccc(OCC(=O)O)cc2)cc(C)c1OC(Cc1ccccc1)C(=O)O` (centres undefined) had a 50% inhibitory concentration (IC50) of more than 250 µM.

As to `O=C(O)C(=O)c1ccc(CN(Cc2ccc(-c3csnn3)cc2)S(=O)(=O)c2ccccc2)cc1`, it took 60.3 µM to reach half-maximal inhibition (IC50). This lies in the double-digit micromolar range.

With `O=C(O)c1cc2cc(CN(Cc3ccc(-c4csnn4)cc3)S(=O)(=O)c3ccccc3)ccc2o1`, it took 63.6 µM to reach half-maximal inhibition (IC50).

`O=C(O)C[S+]([O-])c1ccc(CN(Cc2ccc(-c3csnn3)cc2)S(=O)(=O)c2ccccc2)cc1` (centres undefined): it took 173 µM to reach half-maximal inhibition (IC50).

With `O=C(O)COc1ccc(S(=O)(=O)N(Cc2ccc(-c3csnn3)cc2)Cc2ccc([S+]([O-])CC(=O)O)cc2)cc1` (centres undefined), the 50% inhibitory concentration (IC50) was more than 250 µM.

Regarding `O=P(O)(O)C(F)(F)c1ccc(CN(Cc2ccc(-c3csnn3)cc2)S(=O)(=O)c2ccccc2)cc1`, half-maximal inhibition (IC50) was put at 0.2 µM.

`O=C(O)COc1ccc(CN(Cc2ccc(-c3csnn3)cc2)S(=O)(=O)c2ccccc2)cc1C(=O)O` had an IC50 of 12.2 µM.

On to `O=C(O)COc1ccc(S(=O)(=O)N(Cc2ccc(-c3csnn3)cc2)Cc2ccc(OCC(=O)O)c(Br)c2)cc1`, for which the IC50 turned out to be 4.1 µM.

The molecule `O=C(O)C(F)(F)Oc1ccc(CN(Cc2ccc(-c3csnn3)cc2)S(=O)(=O)c2ccccc2)cc1Br` registered an IC50 of 52.1 µM.

In turn, `O=C(O)COc1ccc(S(=O)(=O)N(Cc2ccc(SCC(=O)O)cc2)Cc2ccc(-c3csnn3)cc2)cc1` had a 50% inhibitory concentration (IC50) of 114 µM.

The molecule `O=C(O)C(=O)Nc1ccc(CN(Cc2ccc(-c3csnn3)cc2)S(=O)(=O)c2ccccc2)cc1Br` registered an IC50 of 13.8 µM.

As for `O=C(O)COc1ccc(S(=O)(=O)N(Cc2ccc(-c3csnn3)cc2)Cc2ccc(S(=O)(=O)CC(=O)O)cc2)cc1`, the IC50 is more than 250 µM.

On to `O=P(O)(O)Cc1ccc(CN(Cc2ccc(-c3csnn3)cc2)S(=O)(=O)c2ccccc2)cc1`, for which the IC50 was found to be 123 µM.

Take `O=C(O)COc1ccc(S(=O)(=O)N(Cc2ccc(CP(=O)(O)O)cc2)Cc2ccc(-c3csnn3)cc2)cc1`: half-maximal inhibition (IC50) was put at 96.8 µM.

In turn, `O=C(O)COc1ccc(S(=O)(=O)N(Cc2ccc(-c3csnn3)cc2)Cc2ccc3oc(C(=O)O)cc3c2)cc1` came in with an IC50 of 29.1 µM.

`O=C(O)COc1ccc(CN(Cc2ccc(-c3csnn3)cc2)S(=O)(=O)c2ccccc2)cc1Br` showed an IC50 of 7.9 µM. This IC50 is about 3.7-fold lower than that of the molecule before.

As for `O=C(O)COc1ccc(S(=O)(=O)N(Cc2ccc(C(=O)C(=O)O)cc2)Cc2ccc(-c3csnn3)cc2)cc1`, inhibition was half-maximal at 27.6 µM (IC50).

`O=C(O)C(=O)N(c1ccccc1)c1ccc(CN(Cc2ccc(-c3csnn3)cc2)S(=O)(=O)c2ccccc2)cc1` registered a 50% inhibitory concentration (IC50) of 235 µM.

Regarding `O=C(O)COc1ccc(CN(Cc2ccc(-c3csnn3)cc2)S(=O)(=O)c2ccccc2)cc1`, the IC50 amounted to 54.1 µM.

The molecule `O=C(O)COc1ccc(S(=O)(=O)N(Cc2ccc(-c3csnn3)cc2)Cc2ccc(NC(=O)C(=O)O)c(C(=O)O)c2)cc1` came in with an IC50 of 1.4 µM. This IC50 is about 39-fold lower than that of the molecule before.
